{"source": "ChEMBL document CHEMBL3612051", "about": "“Carbonic anhydrase inhibitors: Design, synthesis and structural characterization of new heteroaryl-N-carbonylbenzenesulfonamides targeting druggable human carbonic anhydrase isoforms” (Eur J Med Chem, 2015)"}
{"target": "Carbonic anhydrase 7 (Homo sapiens, UniProt P43166)", "sequence (P43166 whole entry)": "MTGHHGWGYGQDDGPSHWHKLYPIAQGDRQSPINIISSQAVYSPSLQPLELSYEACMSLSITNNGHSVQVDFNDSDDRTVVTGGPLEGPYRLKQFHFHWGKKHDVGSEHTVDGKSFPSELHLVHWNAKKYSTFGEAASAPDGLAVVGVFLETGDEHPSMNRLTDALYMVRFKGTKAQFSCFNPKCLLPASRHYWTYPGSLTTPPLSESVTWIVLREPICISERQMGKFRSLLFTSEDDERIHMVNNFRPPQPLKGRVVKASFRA", "assay": "Inhibition of human recombinant full length carbonic anhydrase 7 preincubated for 15 mins by stopped-flow CO2 hydration assay", "units": {"IC50": "nM"}}
{"smiles": "COc1ccc2c(c1)CCCN2C(=O)c1ccc(S(N)(=O)=O)cc1", "IC50": "> 50000"}
{"target": "Carbonic anhydrase 9 (Homo sapiens, UniProt Q16790)", "assay": "Inhibition of human recombinant full length carbonic anhydrase 9 preincubated for 15 mins by stopped-flow CO2 hydration assay", "units": {"Ki": "nM"}}
{"smiles": "NS(=O)(=O)c1ccc(C(=O)N2CCCc3cc(O)ccc32)cc1", "Ki": 42}
{"smiles": "NS(=O)(=O)c1ccc(C(=O)N2CCc3cc(O)c(O)cc3C2)cc1", "Ki": 5.01}
{"smiles": "NS(=O)(=O)c1ccc(C(=O)N2CCc3ccccc3C2)cc1", "Ki": 7.5}
{"smiles": "COc1ccc2c(c1)CCN(C(=O)c1ccc(S(N)(=O)=O)cc1)C2", "Ki": 27}
{"smiles": "COc1cc2c(cc1OC)CN(C(=O)c1ccc(S(N)(=O)=O)cc1)CC2", "Ki": 6.1}
{"smiles": "NS(=O)(=O)c1ccc(C(=O)N2CCCc3ccccc32)cc1", "Ki": 9.4}
{"smiles": "NS(=O)(=O)c1ccc(C(=O)N2CCc3cc(O)ccc3C2)cc1", "Ki": 28}
{"smiles": "COc1ccc2c(c1)CCCN2C(=O)c1ccc(S(N)(=O)=O)cc1", "Ki": 6.5}
